From the kinase profiling compilation of Christmann-Franck et al. (2016)

How the values were obtained:
Test in all cases: radiometric filter-binding kinase assay, Kinase HotSpot
Conditions in all cases: compound 0.5 µM; ATP 10 µM
MAPK14 (human) = MAPK14 (human) (UniProt Q16539)
RPS6KA5 KD2 (human) = RPS6KA5 KD2 (human) (UniProt O75582)
FLT3 (human) = FLT3 (human) (UniProt P36888)
MAPK1 (human) = MAPK1 (human) (UniProt P28482)
STK24 (human) = STK24 (human) (UniProt Q9Y6E0)
PAK3 (human) = PAK3 (human) (UniProt O75914)
EPHA7 (human) = EPHA7 (human) (UniProt Q15375)
LCK (human) = LCK (human) (UniProt P06239)
PDPK1 (human) = PDPK1 (human) (UniProt O15530)
ACVR1B (human) = ACVR1B (human) (UniProt P36896)
CDK2 CCNE1 (human) = CDK2 CCNE1 (human) (UniProt P24941+P24864)
PRKD3 (human) = PRKD3 (human) (UniProt O94806)
GRK5 (human) = GRK5 (human) (UniProt P34947)
GSG2 (human) = GSG2 (human) (UniProt Q8TF76)
GRK4 (human) = GRK4 (human) (UniProt P32298)
MAPKAPK5 (human) = MAPKAPK5 (human) (UniProt Q8IW41)
FER (human) = FER (human) (UniProt P16591)
CHUK (human) = CHUK (human) (UniProt O15111)
CDK1 CCNA2 (human) = CDK1 CCNA2 (human) (UniProt P06493+P20248)
TTK (human) = TTK (human) (UniProt P33981)
CSNK1E (human) = CSNK1E (human) (UniProt P49674)
ROS1 (human) = ROS1 (human) (UniProt P08922)
PRKG2 (human) = PRKG2 (human) (UniProt Q13237)
CDK6 CCND1 (human) = CDK6 CCND1 (human) (UniProt Q00534+P24385)
ROCK2 (human) = ROCK2 (human) (UniProt O75116)
CAMK2B (human) = CAMK2B (human) (UniProt Q13554)
MAPK12 (human) = MAPK12 (human) (UniProt P53778)
DAPK1 (human) = DAPK1 (human) (UniProt P53355)
CDK9 CCNK (human) = CDK9 CCNK (human) (UniProt O75909+P50750)
FYN (human) = FYN (human) (UniProt P06241)
FRK (human) = FRK (human) (UniProt P42685)
MAPK11 (human) = MAPK11 (human) (UniProt Q15759)
PRKX (human) = PRKX (human) (UniProt P51817)
RPS6KA6 KD1 KD2 (human) = RPS6KA6 KD1 KD2 (human) (UniProt Q9UK32)
CHEK2 (human) = CHEK2 (human) (UniProt O96017)
GRK6 (human) = GRK6 (human) (UniProt P43250)
PRKCB1 (human) = PRKCB1 (human) (UniProt P05771)
SRPK3 (human) = SRPK3 (human) (UniProt Q9UPE1)
ERBB2 (human) = ERBB2 (human) (UniProt P04626)
AXL (human) = AXL (human) (UniProt P30530)
MAPK10 (human) = MAPK10 (human) (UniProt P53779)
ALK (human) = ALK (human) (UniProt Q9UM73)

Sequence of PDPK1 (human) (O15530 whole entry, looked up): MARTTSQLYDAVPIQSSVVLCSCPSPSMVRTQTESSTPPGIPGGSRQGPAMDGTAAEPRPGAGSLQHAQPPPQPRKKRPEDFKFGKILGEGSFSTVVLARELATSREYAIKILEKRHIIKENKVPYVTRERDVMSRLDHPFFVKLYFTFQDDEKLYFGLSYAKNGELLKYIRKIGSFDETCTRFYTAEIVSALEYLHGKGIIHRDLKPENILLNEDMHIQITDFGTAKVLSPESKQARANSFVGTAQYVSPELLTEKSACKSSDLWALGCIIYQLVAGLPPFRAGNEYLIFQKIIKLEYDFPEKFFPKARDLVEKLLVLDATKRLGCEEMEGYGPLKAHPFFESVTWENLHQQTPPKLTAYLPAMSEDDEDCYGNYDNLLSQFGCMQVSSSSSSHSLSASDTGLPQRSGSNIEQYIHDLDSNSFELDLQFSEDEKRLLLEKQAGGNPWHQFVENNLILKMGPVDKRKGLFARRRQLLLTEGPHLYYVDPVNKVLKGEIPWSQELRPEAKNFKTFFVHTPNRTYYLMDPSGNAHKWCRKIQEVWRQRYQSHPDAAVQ
Sequence of ROCK2 (human) (O75116 whole entry, looked up): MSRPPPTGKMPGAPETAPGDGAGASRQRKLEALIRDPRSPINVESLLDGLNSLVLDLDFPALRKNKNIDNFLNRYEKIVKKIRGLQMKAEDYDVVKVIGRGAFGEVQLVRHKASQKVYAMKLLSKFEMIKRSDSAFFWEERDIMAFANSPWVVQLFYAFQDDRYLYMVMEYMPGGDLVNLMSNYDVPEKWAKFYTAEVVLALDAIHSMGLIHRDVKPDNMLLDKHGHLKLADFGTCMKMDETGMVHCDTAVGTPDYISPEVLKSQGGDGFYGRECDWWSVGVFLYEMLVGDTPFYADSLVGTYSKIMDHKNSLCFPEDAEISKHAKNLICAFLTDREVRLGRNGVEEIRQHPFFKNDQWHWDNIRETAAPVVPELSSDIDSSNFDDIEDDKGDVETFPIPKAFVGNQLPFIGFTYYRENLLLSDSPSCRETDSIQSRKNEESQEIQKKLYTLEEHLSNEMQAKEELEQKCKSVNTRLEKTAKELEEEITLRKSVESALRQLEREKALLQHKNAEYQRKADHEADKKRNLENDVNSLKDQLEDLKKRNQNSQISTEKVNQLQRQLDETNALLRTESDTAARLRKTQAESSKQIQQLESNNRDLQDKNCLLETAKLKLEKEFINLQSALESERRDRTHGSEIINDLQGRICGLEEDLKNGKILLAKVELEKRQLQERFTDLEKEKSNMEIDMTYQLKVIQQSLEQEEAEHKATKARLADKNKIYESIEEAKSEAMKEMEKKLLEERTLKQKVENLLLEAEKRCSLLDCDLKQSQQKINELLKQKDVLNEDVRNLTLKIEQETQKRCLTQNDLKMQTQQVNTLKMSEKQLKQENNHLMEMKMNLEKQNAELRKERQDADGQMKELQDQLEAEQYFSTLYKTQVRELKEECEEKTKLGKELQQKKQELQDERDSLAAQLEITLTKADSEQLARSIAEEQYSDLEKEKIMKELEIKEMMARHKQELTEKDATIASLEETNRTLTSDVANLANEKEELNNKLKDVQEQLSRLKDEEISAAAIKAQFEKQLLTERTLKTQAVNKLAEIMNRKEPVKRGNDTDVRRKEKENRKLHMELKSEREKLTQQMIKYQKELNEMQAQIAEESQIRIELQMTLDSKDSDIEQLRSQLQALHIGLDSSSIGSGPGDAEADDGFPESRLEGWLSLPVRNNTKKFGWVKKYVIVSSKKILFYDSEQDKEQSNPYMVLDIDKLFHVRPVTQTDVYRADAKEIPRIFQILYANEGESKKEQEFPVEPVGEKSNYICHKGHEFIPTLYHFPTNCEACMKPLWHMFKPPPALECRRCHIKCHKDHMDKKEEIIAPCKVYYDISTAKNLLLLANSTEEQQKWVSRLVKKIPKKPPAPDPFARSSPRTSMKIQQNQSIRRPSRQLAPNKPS
Sequence of CDK6 CCND1 (human) (P24385 whole entry, looked up): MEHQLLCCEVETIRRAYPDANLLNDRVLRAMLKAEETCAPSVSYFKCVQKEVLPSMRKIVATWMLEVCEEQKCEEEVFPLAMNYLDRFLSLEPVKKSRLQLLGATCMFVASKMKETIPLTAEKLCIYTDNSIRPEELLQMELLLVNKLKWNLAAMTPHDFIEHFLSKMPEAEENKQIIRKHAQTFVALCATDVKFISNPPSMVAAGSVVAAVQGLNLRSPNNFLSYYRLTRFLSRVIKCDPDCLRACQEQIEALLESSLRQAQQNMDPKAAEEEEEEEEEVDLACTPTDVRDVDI
Sequence of CDK6 CCND1 (human) (Q00534 whole entry, looked up): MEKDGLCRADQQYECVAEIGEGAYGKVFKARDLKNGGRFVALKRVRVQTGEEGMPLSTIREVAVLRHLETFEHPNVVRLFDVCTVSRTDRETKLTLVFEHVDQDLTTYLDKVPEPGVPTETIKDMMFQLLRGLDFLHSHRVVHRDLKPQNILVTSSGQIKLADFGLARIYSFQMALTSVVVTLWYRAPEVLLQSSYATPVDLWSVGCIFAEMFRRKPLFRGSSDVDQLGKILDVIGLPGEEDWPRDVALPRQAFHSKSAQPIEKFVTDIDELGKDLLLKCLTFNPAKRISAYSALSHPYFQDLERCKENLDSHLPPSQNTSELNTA
Sequence of PAK3 (human) (O75914 whole entry, looked up): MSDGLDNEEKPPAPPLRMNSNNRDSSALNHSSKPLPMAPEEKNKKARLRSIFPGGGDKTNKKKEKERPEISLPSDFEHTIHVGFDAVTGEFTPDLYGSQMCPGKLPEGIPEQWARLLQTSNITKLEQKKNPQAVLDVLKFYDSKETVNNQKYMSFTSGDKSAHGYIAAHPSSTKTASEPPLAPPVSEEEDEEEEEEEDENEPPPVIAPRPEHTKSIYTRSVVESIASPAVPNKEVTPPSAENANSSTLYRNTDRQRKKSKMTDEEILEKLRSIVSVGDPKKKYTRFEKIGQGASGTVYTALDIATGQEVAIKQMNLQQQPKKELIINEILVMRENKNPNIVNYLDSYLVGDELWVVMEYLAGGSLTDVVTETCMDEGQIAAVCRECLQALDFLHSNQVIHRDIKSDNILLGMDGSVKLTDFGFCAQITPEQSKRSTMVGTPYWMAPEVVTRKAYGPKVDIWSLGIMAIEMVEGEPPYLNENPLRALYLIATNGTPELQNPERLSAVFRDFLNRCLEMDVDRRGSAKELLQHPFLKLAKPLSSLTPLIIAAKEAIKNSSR
Sequence of GRK6 (human) (P43250 whole entry, looked up): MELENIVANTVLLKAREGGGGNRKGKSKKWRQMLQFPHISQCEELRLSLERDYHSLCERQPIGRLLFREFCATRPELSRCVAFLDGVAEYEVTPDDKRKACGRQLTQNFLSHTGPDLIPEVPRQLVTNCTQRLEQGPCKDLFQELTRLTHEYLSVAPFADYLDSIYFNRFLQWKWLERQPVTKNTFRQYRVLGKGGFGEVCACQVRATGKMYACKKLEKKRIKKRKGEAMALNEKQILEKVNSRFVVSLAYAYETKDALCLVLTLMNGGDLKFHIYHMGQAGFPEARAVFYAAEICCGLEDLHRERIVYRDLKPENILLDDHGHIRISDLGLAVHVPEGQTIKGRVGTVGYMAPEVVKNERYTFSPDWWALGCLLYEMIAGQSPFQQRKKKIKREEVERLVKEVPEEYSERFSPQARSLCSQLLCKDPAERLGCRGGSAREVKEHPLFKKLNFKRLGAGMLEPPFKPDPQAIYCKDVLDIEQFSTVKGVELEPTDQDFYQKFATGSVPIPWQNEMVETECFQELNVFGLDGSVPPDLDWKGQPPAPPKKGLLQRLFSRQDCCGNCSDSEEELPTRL
Sequence of RPS6KA5 KD2 (human) (O75582 whole entry, looked up): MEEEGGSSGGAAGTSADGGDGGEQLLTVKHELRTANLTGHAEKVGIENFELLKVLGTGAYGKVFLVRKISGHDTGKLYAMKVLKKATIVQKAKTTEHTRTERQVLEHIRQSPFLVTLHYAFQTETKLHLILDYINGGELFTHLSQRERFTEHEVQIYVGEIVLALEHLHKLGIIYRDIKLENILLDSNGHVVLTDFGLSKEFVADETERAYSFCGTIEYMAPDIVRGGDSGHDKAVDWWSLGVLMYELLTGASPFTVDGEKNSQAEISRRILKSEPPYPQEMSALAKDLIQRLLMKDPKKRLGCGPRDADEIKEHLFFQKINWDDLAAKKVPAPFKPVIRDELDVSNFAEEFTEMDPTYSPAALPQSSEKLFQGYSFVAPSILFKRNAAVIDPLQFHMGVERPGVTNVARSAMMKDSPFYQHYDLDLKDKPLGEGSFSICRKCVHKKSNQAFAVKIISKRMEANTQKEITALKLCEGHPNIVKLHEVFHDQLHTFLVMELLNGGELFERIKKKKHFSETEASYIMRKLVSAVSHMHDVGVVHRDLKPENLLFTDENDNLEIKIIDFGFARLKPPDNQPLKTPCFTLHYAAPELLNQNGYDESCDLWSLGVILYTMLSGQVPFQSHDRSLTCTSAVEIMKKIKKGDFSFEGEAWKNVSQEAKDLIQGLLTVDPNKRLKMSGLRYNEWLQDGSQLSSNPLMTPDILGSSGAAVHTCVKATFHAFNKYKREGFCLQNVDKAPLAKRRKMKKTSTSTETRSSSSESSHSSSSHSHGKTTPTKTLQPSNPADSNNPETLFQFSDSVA
Sequence of LCK (human) (P06239 whole entry, looked up): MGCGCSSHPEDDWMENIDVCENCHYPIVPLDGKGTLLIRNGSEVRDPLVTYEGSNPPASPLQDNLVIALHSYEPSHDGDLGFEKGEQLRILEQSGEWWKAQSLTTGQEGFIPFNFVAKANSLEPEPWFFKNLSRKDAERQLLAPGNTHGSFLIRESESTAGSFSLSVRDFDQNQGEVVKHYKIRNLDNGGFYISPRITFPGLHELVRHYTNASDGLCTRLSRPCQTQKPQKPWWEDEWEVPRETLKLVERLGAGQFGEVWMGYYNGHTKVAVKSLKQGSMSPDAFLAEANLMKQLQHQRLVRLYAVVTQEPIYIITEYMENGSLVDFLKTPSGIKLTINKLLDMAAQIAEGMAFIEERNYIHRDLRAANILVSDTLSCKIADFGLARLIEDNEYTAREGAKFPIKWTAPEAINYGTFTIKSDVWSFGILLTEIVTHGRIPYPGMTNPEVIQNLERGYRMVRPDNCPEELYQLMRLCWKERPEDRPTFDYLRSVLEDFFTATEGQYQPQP

For `Cn1sc(=O)n(Cc2ccccc2)c1=O`, the residual activity (MAPK14 (human)) was 101%, the residual activity (RPS6KA5 KD2 (human)) was 108% and the residual activity (FLT3 (human)) was 99.1%. For the same compound, the residual activity (MAPK1 (human)) was 93.1%, the residual activity (STK24 (human)) was 105% and the residual activity (PAK3 (human)) was 100%. For the same compound, the residual activity (EPHA7 (human)) was 105%, the residual activity (LCK (human)) was 103% and the residual activity (PDPK1 (human)) was 95.5%. The residual activity (ACVR1B (human)) was 103%, the residual activity (CDK2 CCNE1 (human)) was 95.1% and the residual activity (PRKD3 (human)) was 95.9%. The residual activity (GRK5 (human)) was 93.6%, the residual activity (GSG2 (human)) was 99% and the residual activity (GRK4 (human)) was 101%. The residual activity (MAPKAPK5 (human)) was 94.2%, the residual activity (FER (human)) was 101% and the residual activity (CHUK (human)) was 96.2%. It also gave a residual activity (CDK1 CCNA2 (human)) of 104%, a residual activity (TTK (human)) of 101% and a residual activity (CSNK1E (human)) of 100%. For the same compound, the residual activity (ROS1 (human)) was 103%, the residual activity (PRKG2 (human)) was 108% and the residual activity (CDK6 CCND1 (human)) was 106%. For the same compound, the residual activity (ROCK2 (human)) was 88.8%, the residual activity (CAMK2B (human)) was 102% and the residual activity (MAPK12 (human)) was 102%. It also gave a residual activity (DAPK1 (human)) of 97.9%, a residual activity (CDK9 CCNK (human)) of 97.2% and a residual activity (FYN (human)) of 105%. For the same compound, the residual activity (FRK (human)) was 112%, the residual activity (MAPK11 (human)) was 97.2% and the residual activity (PRKX (human)) was 102%. The residual activity (RPS6KA6 KD1 KD2 (human)) was 104%, the residual activity (CHEK2 (human)) was 108% and the residual activity (GRK6 (human)) was 104%. It also gave a residual activity (PRKCB1 (human)) of 110%, a residual activity (SRPK3 (human)) of 97.3% and a residual activity (ERBB2 (human)) of 106%. For the same compound, the residual activity (AXL (human)) was 96.9%, the residual activity (MAPK10 (human)) was 91.1% and the residual activity (ALK (human)) was 94.1%.

In the case of `Oc1ccc(Nc2nc(-c3ccc(Cl)cc3)cs2)cc1`, the residual activity (MAPK14 (human)) is reported as 98.6%, the residual activity (RPS6KA5 KD2 (human)) is reported as 109% and the residual activity (FLT3 (human)) is reported as 99%. It also gave a residual activity (MAPK1 (human)) of 106%, a residual activity (STK24 (human)) of 94.1% and a residual activity (PAK3 (human)) of 124%. The residual activity (EPHA7 (human)) was 97.7%, the residual activity (LCK (human)) was 99.8% and the residual activity (PDPK1 (human)) was 101%. The residual activity (ACVR1B (human)) was 89.5%, the residual activity (CDK2 CCNE1 (human)) was 91.9% and the residual activity (PRKD3 (human)) was 97.7%. It also gave a residual activity (GRK5 (human)) of 92%, a residual activity (GSG2 (human)) of 100% and a residual activity (GRK4 (human)) of 90.5%. The residual activity (MAPKAPK5 (human)) was 96.8%, the residual activity (FER (human)) was 90.3% and the residual activity (CHUK (human)) was 104%. It also gave a residual activity (CDK1 CCNA2 (human)) of 91.2%, a residual activity (TTK (human)) of 87.6% and a residual activity (CSNK1E (human)) of 103%. The residual activity (ROS1 (human)) was 96.9%, the residual activity (PRKG2 (human)) was 92.9% and the residual activity (CDK6 CCND1 (human)) was 101%. The residual activity (ROCK2 (human)) was 99.4%, the residual activity (CAMK2B (human)) was 85.8% and the residual activity (MAPK12 (human)) was 106%. It also gave a residual activity (DAPK1 (human)) of 101%, a residual activity (CDK9 CCNK (human)) of 102% and a residual activity (FYN (human)) of 102%. It also gave a residual activity (FRK (human)) of 106%, a residual activity (MAPK11 (human)) of 105% and a residual activity (PRKX (human)) of 99.6%. The residual activity (RPS6KA6 KD1 KD2 (human)) was 117%, the residual activity (CHEK2 (human)) was 97.9% and the residual activity (GRK6 (human)) was 100%. The residual activity (PRKCB1 (human)) was 101%, the residual activity (SRPK3 (human)) was 98.1% and the residual activity (ERBB2 (human)) was 96.9%. It also gave a residual activity (AXL (human)) of 98.5%, a residual activity (MAPK10 (human)) of 101% and a residual activity (ALK (human)) of 111%.

`CCn1cnc2c(Nc3cccc(Cl)c3)nc(N[C@@H]3CCCC[C@@H]3N)nc21` showed a residual activity (MAPK14 (human)) of 100%, a residual activity (RPS6KA5 KD2 (human)) of 87.8% and a residual activity (FLT3 (human)) of 12.7%. For the same compound, the residual activity (MAPK1 (human)) was 91.7%, the residual activity (STK24 (human)) was 79% and the residual activity (PAK3 (human)) was 91.9%. It also gave a residual activity (EPHA7 (human)) of 87.6%, a residual activity (LCK (human)) of 89.5% and a residual activity (PDPK1 (human)) of 94.8%. The residual activity (ACVR1B (human)) was 110%, the residual activity (CDK2 CCNE1 (human)) was 16.8% and the residual activity (PRKD3 (human)) was 90.6%. The residual activity (GRK5 (human)) was 106%, the residual activity (GSG2 (human)) was 90.4% and the residual activity (GRK4 (human)) was 96.2%. The residual activity (MAPKAPK5 (human)) was 98.3%, the residual activity (FER (human)) was 86.8% and the residual activity (CHUK (human)) was 91.7%. The residual activity (CDK1 CCNA2 (human)) was 60.7%, the residual activity (TTK (human)) was 99.7% and the residual activity (CSNK1E (human)) was 92.1%. For the same compound, the residual activity (ROS1 (human)) was 90.7%, the residual activity (PRKG2 (human)) was 74.3% and the residual activity (CDK6 CCND1 (human)) was 60.9%. It also gave a residual activity (ROCK2 (human)) of 90.6%, a residual activity (CAMK2B (human)) of 110% and a residual activity (MAPK12 (human)) of 96.6%. It also gave a residual activity (DAPK1 (human)) of 79.1%, a residual activity (CDK9 CCNK (human)) of 46.9% and a residual activity (FYN (human)) of 48.6%. It also gave a residual activity (FRK (human)) of 87.7%, a residual activity (MAPK11 (human)) of 94.1% and a residual activity (PRKX (human)) of 102%. For the same compound, the residual activity (RPS6KA6 KD1 KD2 (human)) was 75.7%, the residual activity (CHEK2 (human)) was 79.9% and the residual activity (GRK6 (human)) was 99.6%. For the same compound, the residual activity (PRKCB1 (human)) was 106%, the residual activity (SRPK3 (human)) was 94.9% and the residual activity (ERBB2 (human)) was 95.6%. The residual activity (AXL (human)) was 98.7%, the residual activity (MAPK10 (human)) was 98.8% and the residual activity (ALK (human)) was 92.3%.

Work on `Cn1nc2c3c(cccc31)C(=O)c1ccccc1-2` yielded a residual activity (MAPK14 (human)) of 93.6%, a residual activity (RPS6KA5 KD2 (human)) of 100% and a residual activity (FLT3 (human)) of 59.3%. It also gave a residual activity (MAPK1 (human)) of 91.7%, a residual activity (STK24 (human)) of 98.6% and a residual activity (PAK3 (human)) of 101%. The residual activity (EPHA7 (human)) was 104%, the residual activity (LCK (human)) was 99.2% and the residual activity (PDPK1 (human)) was 94.5%. The residual activity (ACVR1B (human)) was 102%, the residual activity (CDK2 CCNE1 (human)) was 89.4% and the residual activity (PRKD3 (human)) was 65.5%. For the same compound, the residual activity (GRK5 (human)) was 93.8%, the residual activity (GSG2 (human)) was 53.1% and the residual activity (GRK4 (human)) was 105%. It also gave a residual activity (MAPKAPK5 (human)) of 94.5%, a residual activity (FER (human)) of 99.2% and a residual activity (CHUK (human)) of 97%. The residual activity (CDK1 CCNA2 (human)) was 88%, the residual activity (TTK (human)) was 77.7% and the residual activity (CSNK1E (human)) was 34.3%. The residual activity (ROS1 (human)) was 104%, the residual activity (PRKG2 (human)) was 105% and the residual activity (CDK6 CCND1 (human)) was 88%. It also gave a residual activity (ROCK2 (human)) of 92.3%, a residual activity (CAMK2B (human)) of 95.3% and a residual activity (MAPK12 (human)) of 93.8%. It also gave a residual activity (DAPK1 (human)) of 86.4%, a residual activity (CDK9 CCNK (human)) of 96.5% and a residual activity (FYN (human)) of 93.8%. For the same compound, the residual activity (FRK (human)) was 94.3%, the residual activity (MAPK11 (human)) was 109% and the residual activity (PRKX (human)) was 101%. It also gave a residual activity (RPS6KA6 KD1 KD2 (human)) of 90.4%, a residual activity (CHEK2 (human)) of 89.8% and a residual activity (GRK6 (human)) of 89.2%. The residual activity (PRKCB1 (human)) was 94.7%, the residual activity (SRPK3 (human)) was 96.3% and the residual activity (ERBB2 (human)) was 96.9%. The residual activity (AXL (human)) was 104%, the residual activity (MAPK10 (human)) was 97.3% and the residual activity (ALK (human)) was 87.4%.
